The results in this text go back to DBAASP.

≈ marks a conversion by molar mass, not a printed value.

Some test systems named below: Escherichia coli INV-a; Candida albicans C627; Escherichia coli DC2; Escherichia coli UB1005; Staphylococcus aureus; Streptococcus sanguinis; Pseudomonas aeruginosa; Escherichia coli C600.
Common to all, as to test: ≥ marks a high value that may be exact or a test limit, other limits are often not marked, values filed in µg/mL are converted to µM
For test [1], the system named is Lactococcus lactis MG1363.
Test [2] has as its system Aeromonas salmonicida 97-4.
Test [3] deals with Aeromonas salmonicida 99-1.
Test [4] has as its system Escherichia coli CGSC 4908.
Test [5] deals with Pseudomonas aeruginosa K799.
The test system of test [6] is Pseudomonas aeruginosa Z61.
Test [7] deals with Salmonella enterica serovar typhimurium MS7953s.
The subject of test [8] is Salmonella enterica subsp. enterica serovar Typhimurium ATCC 14028s.
For test [9], the system named is Staphylococcus aureus C623.
Test [10] has as its system Staphylococcus epidermidis C621.
Test [11] concerns Pseudomonas aeruginosa ATCC 27853.
The test system of test [12] is Staphylococcus aureus ATCC 29213.
The subject of test [13] is Staphylococcus pseudintermedius.
Test [14] concerns Acinetobacter baumannii CCARM 12035.
Test [15] concerns Acinetobacter baumannii KCTC 2508.
Test [16] has as its system Bacillus subtilis KCTC 3068.
Test [17] concerns Escherichia coli CCARM 1229.
In test [18] the test system is Escherichia coli KCTC 1682.
For test [19], the system named is Pseudomonas aeruginosa CCARM 2002.
Test [20] has as its system Pseudomonas aeruginosa KCTC 2004.
For test [21], the system named is Salmonella typhimurium CCARM 8007.
For test [22], the system named is Salmonella typhimurium KCTC 1926.
Test [23] concerns Staphylococcus aureus CCARM 3126.
Test [24] relates to Staphylococcus aureus KCTC 1621.
Test [25] concerns Staphylococcus epidermidis KCTC 1917.
For test [26], the system named is Bacillus subtilis VKM B-501.
Test [27] deals with Staphylococcus aureus 209P.

Broadly, the MIC is the least concentration at which growth counts as inhibited. For the compound `CC[C@H](C)[C@H](N)C(=O)N[C@@H](CC(N)=O)C(=O)N[C@@H](Cc1c[nH]c2ccccc12)C(=O)N[C@@H](CCCCN)C(=O)NCC(=O)N[C@H](C(=O)N[C@@H](C)C(=O)N[C@@H](CC(C)C)C(=O)N[C@@H](CCSC)C(=O)N[C@@H](C)C(=O)N[C@@H](CCCCN)C(=O)N[C@@H](CCCCN)C(=O)N[C@@H](CC(C)C)C(=O)N[C@@H](CC(C)C)C(N)=O)[C@@H](C)CC` [INWKGIALMAKKLL], the MIC with Escherichia coli INV-a came out at 7 µM (≈ 11.2 µg/mL); in test [1] it was 2.5 µM (≈ 4 µg/mL).
On to `CC[C@H](C)[C@H](NC(=O)CNC(=O)[C@H](Cc1cnc[nH]1)NC(=O)[C@H](CC(C)C)NC(=O)CNC(=O)[C@H](CC(C)C)NC(=O)[C@H](CCCCN)NC(=O)[C@H](Cc1ccccc1)NC(=O)[C@H](CC(C)C)NC(=O)[C@H](CCCCN)NC(=O)CNC(=O)[C@H](Cc1c[nH]c2ccccc12)NC(=O)[C@H](Cc1ccccc1)NC(=O)CN)C(=O)NCC(=O)N[C@@H](CC(C)C)C(=O)N[C@@H](CC(C)C)C(=O)N[C@@H](Cc1cnc[nH]1)C(=O)N[C@@H](CC(C)C)C(=O)N[C@@H](Cc1cnc[nH]1)C(=O)N[C@@H](CC(C)C)C(C)=O` [GFWGKLFKLGLHGIGLLHLHL], for which the MIC in test [2] is 6.79 µM (≈ 16 µg/mL); in test [3], 3.39 µM (≈ 7.99 µg/mL); with Candida albicans C627, 6.79 µM (≈ 16 µg/mL); in test [4] it was 3.39 µM (≈ 7.99 µg/mL); in the test on Escherichia coli DC2, 3.39 µM (≈ 7.99 µg/mL); with Escherichia coli UB1005, 3.39 µM (≈ 7.99 µg/mL). For the same compound, the MIC in test [5] worked out at 3.39 µM (≈ 7.99 µg/mL); in [6], 1.7 µM (≈ 4 µg/mL); in test [7] it was 1.7 µM (≈ 4 µg/mL); in test [8], 6.79 µM (≈ 16 µg/mL); in [9], 1.7 µM (≈ 4 µg/mL); in test [10] it was 1.7 µM (≈ 4 µg/mL).
As for `CC[C@H](C)[C@H](NC(=O)[C@H](Cc1ccccc1)NC(=O)[C@@H](N)Cc1ccccc1)C(=O)N[C@@H](Cc1ccccc1)C(=O)N[C@@H](Cc1ccccc1)C(=O)N[C@@H](Cc1ccccc1)C(N)=O` [FFIFFF], the MIC was 14.8 µM (≈ 12.8 µg/mL) in the test with Staphylococcus aureus and not below 32.6 µM in the test with Streptococcus sanguinis.
In the case of `CC(=O)N[C@@H](CCCN=C(N)N)C(=O)N[C@@H](CCCCN)C(=O)N[C@@H](Cc1ccccc1)C(=O)N[C@@H](CC(C)C)C(=O)N[C@@H](CCCN=C(N)N)C(=O)N[C@@H](CCCN=C(N)N)C(=O)N[C@@H](CCCN=C(N)N)C(=O)NCC(=O)N[C@@H](CCC(=O)O)C(=O)N[C@H](C(=O)N[C@@H](C)C(=O)N[C@@H](Cc1cnc[nH]1)C(=O)N[C@@H](Cc1ccccc1)C(=O)N[C@@H](CO)C(=O)N[C@@H](CCC(N)=O)C(=O)N[C@@H](CCCCN)C(=O)N[C@@H](CO)C(=O)N[C@@H](CC(C)C)C(=O)NCC(=O)N[C@@H](CC(C)C)C(=O)N[C@@H](Cc1ccc(O)cc1)C(=O)N[C@@H](CS)C(=O)N[C@@H](Cc1c[nH]c2ccccc12)C(=O)N[C@@H](Cc1c[nH]c2ccccc12)C(=O)N[C@@H](Cc1c[nH]c2ccccc12)C(N)=O)C(C)C` [RKFLRRRGEVAHFSQKSLGLYCWWW], the MIC was 19.9 µM (≈ 64.8 µg/mL) in test [11], 39.9 µM (≈ 130 µg/mL) against Pseudomonas aeruginosa, 19.9 µM (≈ 64.8 µg/mL) in test [12] and not below 39.9 µM in [13].
Turning to `CC[C@H](C)[C@H](NC(=O)[C@H](CCCCN)NC(=O)[C@H](Cc1c[nH]c2ccccc12)NC(=O)[C@@H](N)CCCN=C(N)N)C(=O)N[C@@H](Cc1ccccc1)C(=O)N[C@@H](CCCCN)C(=O)N[C@@H](CCCCN)C(=O)N[C@H](C(=O)N[C@H](C(=O)N[C@@H](CCCCN)C(=O)N[C@@H](CCCCN)C(=O)N[C@@H](Cc1c[nH]c2ccccc12)C(N)=O)C(C)C)C(C)C` [RWKIFKKVVKKW], the MIC in test [14] turned out to be 4 µM (≈ 6.58 µg/mL); in [15], 4 µM (≈ 6.58 µg/mL); in [16], 8 µM (≈ 13.2 µg/mL); in test [17] it was 8 µM (≈ 13.2 µg/mL); in [18], 4 µM (≈ 6.58 µg/mL); in test [19] it was 8 µM (≈ 13.2 µg/mL). Besides, the MIC in test [20] is 4 µM (≈ 6.58 µg/mL); in test [21], 8 µM (≈ 13.2 µg/mL); in test [22], 8 µM (≈ 13.2 µg/mL); in [23] it was 8 µM (≈ 13.2 µg/mL); in [24], 4 µM (≈ 6.58 µg/mL); in test [25], 8 µM (≈ 13.2 µg/mL).
As to `CC[C@H](C)[C@H](NC(=O)[C@H](C)NC(=O)[C@H](CCCCN)NC(=O)[C@H](CCCN=C(N)N)NC(=O)CNC(=O)[C@H](Cc1ccccc1)NC(=O)[C@H](CCCCN)NC(=O)[C@H](CCCCN)NC(=O)[C@@H](NC(=O)[C@H](CC(C)C)NC(=O)[C@H](CCCCN)NC(=O)CN)[C@@H](C)CC)C(=O)N[C@@H](CO)C(=O)N[C@@H](Cc1ccc(O)cc1)C(=O)N[C@@H](C)C(=O)N[C@H](C(=O)N[C@@H](CCCCN)C(=O)N[C@@H](CCCCN)C(=O)N[C@@H](C)C(=O)N[C@@H](CCCN=C(N)N)C(=O)NCC(=O)N[C@@H](CCCCN)C(=O)N[C@@H](Cc1cnc[nH]1)C(=O)O)C(C)C` [GKLIKKFGRKAISYAVKKARGKH], the MIC in [26] was 0.7 µM (≈ 1.81 µg/mL); against Escherichia coli C600, 6 µM (≈ 15.5 µg/mL); in test [27], not below 36 µM.
